Data published in patent US6716582B2 (priority 2000, dated 2004).

Key:
[1] = test system: LuxArray 1.04 luxCDABE gene fusions; experiment: LuxArray 1.04 limonene stress in liquid culture; format: cell-based, E. coli; settings: for upregulation of gene fusion: 80% saturated limonene
Method: Microplates from −80° C. containing the LuxArray 1.04 E. coli strains were thawed and used to inoculate 100 μl LB medium supplemented with 100 μg/ml ampicillin in Costar#3595 flat bottomed 96-well microplates. Following overnight growth at 37° C., the plates were visually examined and any wells with little or no turbidity were recorded. Then these cultures were diluted by transfer of 15 μl to 135 μl LB medium in Costar #3595, flat bottom 96-well microplates and were moderately swirl shaken on an IKA Schuttler MTS 4 shaker at setting 400 for two hrs at 37° C. in a humidified box. Twenty μl of each these actively growing cultures were transferred to the corresponding well in sets of three microplates, one containing 80 μl of LB medium, another containing 80 μl of LB medium saturated with limonene at room temperature, and the third containing 40 μl of LB medium saturated with limonene and 40 μl of LB medium. An initial (zero time) reading was taken using an MLX microplate luminometer (Dynex) pre-warmed to 37° C. Then the plates were placed at 37° C. without shaking. Additional bioluminescent measurements were taken at 45, 90, and 135 minutes. To limit the number of microplates handled each day, LuxArray 1.04 microplates 1 to 5, microplates 6 to 10, microplates 11 to 15, and microplates […] were used on each of four different days.
The data were normalized to correct for growth inhibition caused by limonene on the basis of each individual day that data was collected. The bioluminescence (RLU) of each individual culture for each day of experimentation under each of the three conditions, were added to determine the daily array total RLU. These were used to find a daily normalization factor (DNF) as follows:
DNF=Daily total array signal (time zero, LB control)/Daily total array signal (time x, condition y)
Each measurement from the corresponding day, time point, and condition was multiplied by DNF to yield a normalized signal. The data from wells that were scored to have little or no growth were not used in further analysis. The normalized data were analyzed with GeneSpring (Silicon Genetics) software, which averaged the signal from each of the duplicate cultures for each reporter gene fusion.
Thus, patterns of gene expression from the 80% saturated limonene in LB medium were further examined. […] These lists were examined and gene fusions with very low normalized RLU values (<0.012 RLU) at all conditions were eliminated. […] The designation of “>2×” is given for upregulation while “*” is listed if the expression was less than 2 fold increased. At 45 minutes, the expression of fourteen gene fusions was increased; none of these was increased 3 fold or higher. At 90 minutes, 37 gene fusions were induced; these included all but one of the gene fusions observed at 45 minutes. […] These were fusions of the luxCDABE reporter to the promoter regions of uhpT (3.8×), nirB (3.7×) and narK (3.6×). At 135 minutes, 39 gene fusions were induced, which included 13 fusions not observed at 45 or 90 minutes.

[2] = test system: uhpT-luxCDABE gene fusion (strain DPD3228); experiment: verification of uhpT-lux upregulation by limonene; format: cell-based, E. coli; settings: late response, maximal at highest concentration, detected at 40% or 20% of saturation
Method: E. coli strain DPD3228 is identical to lux-a.pk034.b9 the strain containing the uhpT-luxCDABE gene fusion. This strain was grown overnight at 37° C. in LB medium containing 100 μg/ml ampicillin and diluted the following day into LB medium and grown to log phase at 37° C. 20 μl aliquots of this culture were added to 80 μl of LB medium saturated with limonene, to 80 μl of a series of two fold dilutions into LB medium of LB saturated with limonene, and to 80 μl of LB medium. Light production was measured in a Luminoskan Ascent (Labsystems) microplate luminometer at 37° C. […] Similar to the initial LuxArray observations, a late response to the presence of limonene was observed. This response was maximal at the highest concentration of limonene tested, but was also detected when limonene was present at 40% or 20% of saturating amounts in LB medium.

## C=C(C)[C@H]1CC=C(C)CC1 [limonene]
[1]; katG-lux, 135 minutes
  upregulation of gene fusion: 4.1 ×
[1]; narK-lux, 90 minutes
  upregulation of gene fusion: 3.6 ×
[1]; nirB-lux, 90 minutes
  upregulation of gene fusion: 3.7 ×
[1]; nirB-lux, 135 minutes
  upregulation of gene fusion: 4.1 ×
[1]; uhpT-lux, 90 minutes
  upregulation of gene fusion: 3.8 ×
[1]; uhpT-lux, 135 minutes
  upregulation of gene fusion: 7.7 ×
[1]; whole LuxArray 1.04, 40% saturated limonene in LB medium
  upregulation of gene expression: little to no upregulation
[2]
  upregulation of bioluminescence: upregulation of bioluminescence from this strain by limonene was confirmed
